Laboratory results from patent publication US6673827B1, “Methods of treating fungal infections with inhibitors of NAD synthetase enzyme” (priority 1999, dated 2004).
Like-named read-outs stand apart in the source and are kept apart here.

What was measured:
[1] = test system: Candida tropicalis ATCC 28707; experiment: In vitro study of inhibition of growth and lethality against yeast (MIC/MLC susceptibility test), isolate B; format: cell-based; conditions: Candida tropicalis, 1st pair of lines, isolate assigned by line order; for MFC: ATCC28707, read-out: Minimum Lethal Conc. (MLC)
[2] = test system: Cryptococcus neoformans SLP-BC0012854; experiment: In vitro study of inhibition of growth and lethality against yeast (MIC/MLC susceptibility test), isolate H; format: cell-based; conditions: Cryptococcus neoformans, Cryptococcus neoformans, 2nd pair of lines, isolate assigned by line order; for MFC: SLPBC0012854, read-out: Minimum Lethal Conc. (MLC)
[3] = test system: Torulopsis glabrata JHC-BC9951635; experiment: In vitro study of inhibition of growth and lethality against yeast (MIC/MLC susceptibility test), isolate E; format: cell-based; conditions: Torulopsis glabrata, 2nd pair of lines, isolate assigned by line order; for MIC / MFC: Nakaseomyces glabratus; for MFC: JHCBC9951635, read-out: Minimum Lethal Conc. (MLC)
[4] = test system: Cryptococcus neoformans DLB-1027594CNC; experiment: In vitro study of inhibition of growth and lethality against yeast (MIC/MLC susceptibility test), isolate G; format: cell-based; conditions: Cryptococcus neoformans, Cryptococcus neoformans, 1st pair of lines, isolate assigned by line order; for MIC / MFC: DLB1027594CNC; for MFC: read-out: Minimum Lethal Conc. (MLC)
[5] = test system: Candida tropicalis ATCC 750; experiment: In vitro study of inhibition of growth and lethality against yeast (MIC/MLC susceptibility test), isolate A; format: cell-based; conditions: Candida tropicalis, 2nd pair of lines, isolate assigned by line order; for MFC: ATCC750, read-out: Minimum Lethal Conc. (MLC)
[6] = test system: Candida albicans KJP-000531594; experiment: In vitro study of inhibition of growth and lethality against yeast (MIC/MLC susceptibility test), isolate C; format: cell-based; conditions: Candida albicans, Candida albicans, 1st pair of lines; for MFC: KJP000531594, read-out: Minimum Lethal Conc. (MLC)
[7] = test system: Candida albicans LH-000664533; experiment: In vitro study of inhibition of growth and lethality against yeast (MIC/MLC susceptibility test), isolate D; format: cell-based; conditions: Candida albicans, Candida albicans, 2nd pair of lines, isolate assigned by line order; for MFC: LH000664533, read-out: Minimum Lethal Conc. (MLC)
[8] = test system: Torulopsis glabrata ERH-BC9938274; experiment: In vitro study of inhibition of growth and lethality against yeast (MIC/MLC susceptibility test), isolate F; format: cell-based; conditions: Torulopsis glabrata, 1st pair of lines, isolate assigned by line order; for MIC / MFC: Nakaseomyces glabratus; for MFC: ERHBC9938274, read-out: Minimum Lethal Conc. (MLC)
[9] = target: T1, NAD synthetase (recombinant protein from B. subtilis; purified) (Bacillus subtilis, UniProt P08164); experiment: NAD synthetase enzyme inhibition assay (coupled enzymatic assay, HTS); format: biochemical; conditions: IC50 (μg/mL) for Inhibit. of NAD Synthetase, table of structures used in the yeast assay (Example 4)
T1 construct: made in house
T1 sequence (P08164 whole entry): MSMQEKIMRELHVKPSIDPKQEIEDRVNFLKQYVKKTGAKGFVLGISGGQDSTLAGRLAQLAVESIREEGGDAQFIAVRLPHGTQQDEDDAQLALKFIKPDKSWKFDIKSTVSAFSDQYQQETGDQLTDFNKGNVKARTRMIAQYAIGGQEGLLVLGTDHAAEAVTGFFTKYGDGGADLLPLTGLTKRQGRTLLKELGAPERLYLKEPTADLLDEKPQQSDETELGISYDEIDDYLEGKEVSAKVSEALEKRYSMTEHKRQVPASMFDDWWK
Description: NAD Synthetase Enzyme Inhibition Assay-Determination of Test Compound Concentrations Providing 50% Inhibition ([…]) of the Maximum Enzyme Rate
The potential inhibitory activity of the synthetic compounds was determined by the use of a coupled enzymatic assay. The coupled assay involves two steps as summarized below. [drawing 98]
The measurement of inhibitory activities of the test compounds was facilitated by the use of a high through-put screening system (HTS system). The HTS system utilizes an integrated Sagian 2M ORCA robotic system coordinating the functions of a Beckman Biomek 2000 liquid handler and a Molecular Devices SpectraMax Plus spectrophotometer. The 2M ORCA robotic station is responsible for the movement of all hardware and the integration of multiple stations on the worksurface. The Biomek 2000 is programmed to perform all phases of liquid dispensing and mixing. The SpectraMax Plus spectrophotometer is equipped to monitor absorbance in a 96-well plate format.
The Biomek 2000 mixes these components utilizing a predefined mixing program. […] The reaction is monitored by measuring the increase in absorbance at 340 nm (NADH). The linear portion of the reaction is monitored for 180 sec. The initial velocity is determined using Softmax Pro, the software supplied with the Molecular Devices SpectrMax Plus spectrophotometer.
The test compounds were supplied as a stock solution with a concentration of 50 mM dissolved in 100% dimethyl sulfoxide (DMSO). An initial screen was conducted on all compounds using a 2 or 3 concentration screen. The 2 panel screen used concentrations of 0.2 mM and 0.1 mM for the compounds. The 3 panel screen used concentrations of 0.2 mM, 0.1 mM, and 0.05 mM. […] The IC50 values for each compound were determined graphically from a plot of % inhibition versus […].

[10] = ATCC28707, 24 h, read at 24 hr, read-out: Minimum Inhibitory Conc. (MIC), 24 hr.
[11] = ATCC28707, 48 h, read at 48 hr, read-out: Minimum Inhibitory Conc. (MIC), 48 hr.
[12] = SLPBC0012854, 48 h, read at 48 hr, read-out: Minimum Inhibitory Conc. (MIC), 48 hr.
[13] = SLPBC0012854, 72 h, read at 72 hr, read-out: Minimum Inhibitory Conc. (MIC), 72 hr.
[14] = JHCBC9951635, 24 h, read at 24 hr, read-out: Minimum Inhibitory Conc. (MIC), 24 hr.
[15] = JHCBC9951635, 48 h, read at 48 hr, read-out: Minimum Inhibitory Conc. (MIC), 48 hr.
[16] = 48 h, read at 48 hr, read-out: Minimum Inhibitory Conc. (MIC), 48 hr.
[17] = 72 h, read at 72 hr, read-out: Minimum Inhibitory Conc. (MIC), 72 hr.
[18] = ATCC750, 24 h, read at 24 hr, read-out: Minimum Inhibitory Conc. (MIC), 24 hr.
[19] = ATCC750, 48 h, read at 48 hr, read-out: Minimum Inhibitory Conc. (MIC), 48 hr.
[20] = KJP000531594, 24 h, read at 24 hr, isolate not given, assigned by line order and MLC of Table 4B, read-out: Minimum Inhibitory Conc. (MIC), 24 hr.
[21] = KJP000531594, 48 h, read at 48 hr, isolate assigned by line order, read-out: Minimum Inhibitory Conc. (MIC), 48 hr.
[22] = LH000664533, 24 h, read at 24 hr, read-out: Minimum Inhibitory Conc. (MIC), 24 hr.
[23] = LH000664533, 48 h, read at 48 hr, read-out: Minimum Inhibitory Conc. (MIC), 48 hr.
[24] = ERHBC9938274, 24 h, read at 24 hr, read-out: Minimum Inhibitory Conc. (MIC), 24 hr.
[25] = ERHBC9938274, 48 h, read at 48 hr, read-out: Minimum Inhibitory Conc. (MIC), 48 hr.

Row | Structure (SMILES) | MFC [1] [µg/mL] | MIC [1, 10] [µg/mL] | MIC [1, 11] [µg/mL] | MIC [2, 12] [µg/mL] | MIC [2, 13] [µg/mL] | MFC [2] [µg/mL] | MIC [3, 14] [µg/mL] | MIC [3, 15] [µg/mL] | MFC [3] [µg/mL] | MIC [4, 16] [µg/mL] | MIC [4, 17] [µg/mL] | MFC [4] [µg/mL] | MFC [5] [µg/mL] | MIC [5, 18] [µg/mL] | MIC [5, 19] [µg/mL] | MIC [6, 20] [µg/mL] | MIC [6, 21] [µg/mL] | MFC ([6]; isolate assigned by line order) [µg/mL] | MIC [7, 22] [µg/mL] | MIC [7, 23] [µg/mL] | further results
1 | C[N+](C)(C)C(CCc1ccccc1)C(=O)OCCCCCCCCOc1ccc(OCc2ccccc2)cc1.[I-] (centres unmarked) [Compound 1260] | 1 | 1 | 1 | 1 | 1 | 2 | 2 | 2 | 2 | 1 | 1 | 2 | 2 | 2 | 2 | 2 | 2 | 2 | 2 | 2 | MFC [7]: 4 µg/mL; MIC [8, 24]: 2 µg/mL; MIC [8, 25]: 2 µg/mL; MFC [8]: 2 µg/mL; IC50 [9]: 45.5 µM
2 | C[N+](C)(C)c1ccc(CCCC(=O)OCCCCCCCCOc2ccc(OCc3ccccc3)cc2)cc1.[I-] [Compound 1200] | 1 | 1 | 1 | 2 | 2 | 4 | 1 | 1 | 1 | 2 | 2 | 4 | 1 | 2 | 2 | 2 | 2 | 2 | 2 | 2 | Minimum Inhibitory Conc. (MIC), 24 hr. ([5]; read at 24 hr): 1 µg/mL; Minimum Inhibitory Conc. (MIC), 48 hr. ([5]; read at 48 hr): 1 µg/mL; MFC [7]: 2 µg/mL; MIC [8, 24]: 1 µg/mL; MIC [8, 25]: 2 µg/mL; MFC [8]: 2 µg/mL; IC50 [9]: 53.1 µM
3 | C[N+](C)(C)C(Cc1ccccc1)C(=O)OCCCCCCCCOc1ccc(OCc2ccccc2)cc1.[I-] (centres unmarked) [Compound 1230] | 1 | 0.5 | 0.5 | 1 | 1 | 4 | 1 | 2 | 2 | 1 | 1 | 4 | 1 | 1 | 1 | 1 | 2 | 2 | 2 | 4 | Minimum Inhibitory Conc. (MIC), 72 hr. ([2]; read at 72 hr): 2 µg/mL; Minimum Inhibitory Conc. (MIC), 24 hr. ([3]; read at 24 hr): 2 µg/mL; Minimum Inhibitory Conc. (MIC), 48 hr. ([4]; read at 48 hr): 0.5 µg/mL; Minimum Inhibitory Conc. (MIC), 72 hr. ([4]; read at 72 hr): 2 µg/mL; Minimum Inhibitory Conc. (MIC), 24 hr. ([7]; read at 24 hr): 1 µg/mL; Minimum Inhibitory Conc. (MIC), 48 hr. ([7]; read at 48 hr): 2 µg/mL; MFC [7]: 2 µg/mL; MIC [8, 24]: 2 µg/mL; MIC [8, 25]: 2 µg/mL; MFC [8]: 2 µg/mL; IC50 [9]: 31 µM
4 | Cc1[nH]c2ccccc2c1/C=C/C1=[N+](C)c2ccccc2C1(C)C.[Cl-] [Compound 1400] | 16 | 16 | 32 | > 32 | > 32 | > 32 | > 33 | > 32 | > 32 | > 32 | > 32 | > 32 | > 32 | > 32 | > 32 | > 32 | > 32 | > 32 | > 32 | > 32 | Minimum Inhibitory Conc. (MIC), 48 hr. ([1]; read at 48 hr): 16 µg/mL; Minimum Inhibitory Conc. (MIC), 24 hr. ([3]; read at 24 hr): >32 µg/mL; MFC [7]: > 32 µg/mL; MIC [8, 24]: > 34 µg/mL; MIC [8, 25]: > 32 µg/mL; MFC [8]: > 32 µg/mL; Minimum Inhibitory Conc. (MIC), 24 hr. ([8]; read at 24 hr): >32 µg/mL; IC50 [9]: > 570 µM
5 | COC(=O)c1cc2ccccc2[n+](C)c1-c1c[nH]c2ccccc12.[I-] [Compound 1500] | 8 | 4 | 8 | 32 | 32 | > 32 | 32 | > 32 | > 32 | 32 | 32 | > 32 | > 32 | 32 | > 32 | 32 | > 32 | > 32 | 32 | > 32 | Minimum Inhibitory Conc. (MIC), 72 hr. ([2]; read at 72 hr): >32 µg/mL; Minimum Inhibitory Conc. (MIC), 24 hr. ([3]; read at 24 hr): >32 µg/mL; Minimum Inhibitory Conc. (MIC), 72 hr. ([4]; read at 72 hr): >32 µg/mL; Minimum Inhibitory Conc. (MIC), 24 hr. ([5]; read at 24 hr): >32 µg/mL; Minimum Inhibitory Conc. (MIC), 24 hr. ([6]; read at 24 hr, isolate not given, assigned by line order and MLC of Table 4B): >32 µg/mL; Minimum Inhibitory Conc. (MIC), 24 hr. ([7]; read at 24 hr): >32 µg/mL; MFC [7]: > 32 µg/mL; MIC [8, 24]: 32 µg/mL; MIC [8, 25]: > 32 µg/mL; MFC [8]: > 32 µg/mL; Minimum Inhibitory Conc. (MIC), 24 hr. ([8]; read at 24 hr): >32 µg/mL; IC50 [9]: > 450 µM
